Test results published in article PMC4823954, “From fighting depression to conquering tumors: a novel tricyclic thiazepine compound as a tubulin polymerization inhibitor” (Cell Death & Disease, 2016).

Tests used:
H460TaxR [1] = assay: Cell viability assay (sulforhodamine B); format: cell-based, human; details: for EC50: Homo sapiens, H460/TaxR
Method: (§1) All biological reagents and solvents were obtained from commercial suppliers and used as recommended. The human NSCLC cell line H460 and P-gp-overexpressing drug-resistant cell line H460TaxR were cultured in RPMI-1640 medium supplemented with 10% fetal bovine serum, 100 units/ml penicillin and […] streptomycin. The NHFB cell line NHFB was cultured in DMEM with the same supplements. All cells were maintained in a 37 °C incubator with 95% humidity and 5% CO2.
(§2) The cell viability was determined using the sulforhodamine B assay.[64] In brief, cells (4000 cells in 100 μl medium) were seeded in 96-well culture plates and incubated for 24 h. The cells were treated with the compounds or with an equal volume (0.1%) of DMSO for 72 h. The cell viability was calculated using the following formula: cell viability=Atreatment/Acontrol. The EC50 values were determined using the Sigma Plot 10.0 software package (Systat Software Inc., San Jose, CA, USA).

H460 [2] = assay: Cell viability assay (sulforhodamine B); format: cell-based, human; details: H460 cells, 72 h
Method: as §1, §2

[3] = human liver microsome stability; format: in vitro ADME; details: liver microsomes, read-out: T1/2 in human liver microsome (converted)
Text: (§3) As in vivo investigations are generally time consuming and expensive, it is advantageous to eliminate those compounds that are not suitable for animal experiments. One of the necessary steps is to screen the initial hits using assays testing their possible behaviors in vivo. To evaluate the drug-like properties of TBPT, a panel of in vitro assays was preformed (Table 1). The parallel artificial membrane permeability assay (PAMPA) was used to evaluate the cell permeability of the compounds. Compounds with a Pe >[…] are classified as highly permeable. […] The Caco-2 assay was used to predict the oral absorption values of the compounds in vivo. Compounds with a Caco-2 efflux ratio >2 may be subject to active efflux and should not be developed further. […] The half-life (T1/2) in human liver microsomes is used to predict the metabolism properties of compounds in vivo. […] A very long T1/2 (>24 h) increases the risk of cumulative toxicity and is not desirable. […] T1/2 in plasma indicates the stability of the drug in human blood; the high T1/2 values of these compounds indicated better stability in vivo. Plasma protein binding influences the distribution of drugs into body tissues, and compounds with high plasma protein binding (>99%) are limited in terms of the amount of free compound that are available to act on the targeted tissue. […]

plasma stability = format: in vitro ADME; details: human, read-out: T1/2 in human plasma
Text: as §3

P-gp = target: T1, P-gp (Homo sapiens, UniProt P08183); assay: P-gp ATPase activity assay; format: biochemical; details: compared with DMSO; TBPT 2 μM, 1 h; human cell membrane P-gp fractions
T1 construct: purchased Promega Biotech, Madison, WI, USA
T1 sequence (P08183 whole entry): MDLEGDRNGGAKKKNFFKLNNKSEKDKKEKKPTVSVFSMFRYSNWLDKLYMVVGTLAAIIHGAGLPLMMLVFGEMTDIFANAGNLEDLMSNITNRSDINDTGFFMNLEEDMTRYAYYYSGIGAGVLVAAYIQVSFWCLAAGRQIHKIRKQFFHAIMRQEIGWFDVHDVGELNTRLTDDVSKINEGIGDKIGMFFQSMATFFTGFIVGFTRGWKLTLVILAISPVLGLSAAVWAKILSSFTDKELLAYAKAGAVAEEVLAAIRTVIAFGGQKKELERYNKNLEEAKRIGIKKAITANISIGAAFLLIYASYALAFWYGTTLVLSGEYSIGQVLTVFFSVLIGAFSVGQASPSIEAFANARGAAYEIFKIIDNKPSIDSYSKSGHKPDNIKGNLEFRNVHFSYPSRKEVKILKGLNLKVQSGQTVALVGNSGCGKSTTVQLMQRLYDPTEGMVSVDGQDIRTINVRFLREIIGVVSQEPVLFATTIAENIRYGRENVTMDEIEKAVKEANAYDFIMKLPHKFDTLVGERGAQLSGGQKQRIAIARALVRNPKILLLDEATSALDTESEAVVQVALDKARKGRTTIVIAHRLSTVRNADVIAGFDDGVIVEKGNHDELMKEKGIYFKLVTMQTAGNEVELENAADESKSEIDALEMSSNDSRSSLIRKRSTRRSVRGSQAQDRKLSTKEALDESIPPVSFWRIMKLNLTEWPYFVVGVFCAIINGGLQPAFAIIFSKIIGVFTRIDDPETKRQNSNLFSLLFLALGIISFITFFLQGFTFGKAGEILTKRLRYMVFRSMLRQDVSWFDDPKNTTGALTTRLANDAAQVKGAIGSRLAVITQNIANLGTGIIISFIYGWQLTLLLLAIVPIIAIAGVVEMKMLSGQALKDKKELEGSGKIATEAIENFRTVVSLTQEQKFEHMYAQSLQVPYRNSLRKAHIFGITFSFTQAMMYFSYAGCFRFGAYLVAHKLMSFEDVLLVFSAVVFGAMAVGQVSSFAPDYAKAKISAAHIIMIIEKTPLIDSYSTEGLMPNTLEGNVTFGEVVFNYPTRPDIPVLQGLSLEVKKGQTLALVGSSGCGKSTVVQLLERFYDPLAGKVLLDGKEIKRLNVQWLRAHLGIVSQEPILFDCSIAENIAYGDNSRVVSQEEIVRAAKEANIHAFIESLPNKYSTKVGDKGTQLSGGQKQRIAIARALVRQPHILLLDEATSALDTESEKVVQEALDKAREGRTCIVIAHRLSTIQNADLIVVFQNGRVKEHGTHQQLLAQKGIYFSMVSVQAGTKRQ
Method: The P-gp ATPase activity was determined in human cell membrane P-gp fractions using a luminescence-based assay.
The P-gp ATPase activity assay was conducted using the P-gp Glo Assay System following the manufacturer's protocol (Promega Biotech, Madison, WI, USA). […] Then, the luminescence was measured using a POLARstar Galaxy luminometer (BMG Labtech, Offenburg, Germany). The change in luminescence was calculated by comparing the Na3VO4-treated samples with the other compound-treated samples. The change in luminescence change is proportional to the ATP consumption in the samples, which correlated positively with the P-gp ATPase activity.

H460TaxR [4] = assay: Immunofluorescence staining for microtubule structure; format: cell-based, human; details: 2 μM, 24 h
Method: (§4) The cells were washed in PBS and then fixed in paraformaldehyde (4% v/v) for 10 min. After the cells were washed three times in PBS, they were blocked with 5% (w/v) BSA for 30 min at RT. Then, α-tubulin antibody (CST, Beverly, MA, USA) was incubated with cells in a humid chamber overnight at 4 °C. After the cells were washed three times in PBS, they were incubated with goat anti-rabbit IgG-FITC (Jackson ImmunoResearch, West Grove, PA, USA) for 1 h at 37 °C. Then, the cells were mounted with mounting medium containing DAPI (Vector Lab, Peterborough, UK) after they were washed three times in PBS. Finally, the cells were observed and imaged using a fluorescence microscope (Olympus IX71, Tokyo, Japan).

H460 [5] = assay: as above; format: cell-based, human; details: H460, 2 μM, 24 h
Method: as §4

[6] = target: T2, ABL1(H396P)-phosphorylated (Homo sapiens, UniProt P00519, H396P); assay: KINOMEscan; format: binding; details: read-out: % Ctrl
T2 construct: purchased DiscoveRx KINOMEscan

EGFR(L747-T751del,Sins) = assay: KINOMEscan; format: binding, human
EGFR(L858R) = target: T3, EGFR(L858R) (Homo sapiens, UniProt P00533, L858R); assay: KINOMEscan; format: binding; details: read-out: % Ctrl
T3 construct: purchased DiscoveRx KINOMEscan
T3 sequence (P00533 25-1210 L858R): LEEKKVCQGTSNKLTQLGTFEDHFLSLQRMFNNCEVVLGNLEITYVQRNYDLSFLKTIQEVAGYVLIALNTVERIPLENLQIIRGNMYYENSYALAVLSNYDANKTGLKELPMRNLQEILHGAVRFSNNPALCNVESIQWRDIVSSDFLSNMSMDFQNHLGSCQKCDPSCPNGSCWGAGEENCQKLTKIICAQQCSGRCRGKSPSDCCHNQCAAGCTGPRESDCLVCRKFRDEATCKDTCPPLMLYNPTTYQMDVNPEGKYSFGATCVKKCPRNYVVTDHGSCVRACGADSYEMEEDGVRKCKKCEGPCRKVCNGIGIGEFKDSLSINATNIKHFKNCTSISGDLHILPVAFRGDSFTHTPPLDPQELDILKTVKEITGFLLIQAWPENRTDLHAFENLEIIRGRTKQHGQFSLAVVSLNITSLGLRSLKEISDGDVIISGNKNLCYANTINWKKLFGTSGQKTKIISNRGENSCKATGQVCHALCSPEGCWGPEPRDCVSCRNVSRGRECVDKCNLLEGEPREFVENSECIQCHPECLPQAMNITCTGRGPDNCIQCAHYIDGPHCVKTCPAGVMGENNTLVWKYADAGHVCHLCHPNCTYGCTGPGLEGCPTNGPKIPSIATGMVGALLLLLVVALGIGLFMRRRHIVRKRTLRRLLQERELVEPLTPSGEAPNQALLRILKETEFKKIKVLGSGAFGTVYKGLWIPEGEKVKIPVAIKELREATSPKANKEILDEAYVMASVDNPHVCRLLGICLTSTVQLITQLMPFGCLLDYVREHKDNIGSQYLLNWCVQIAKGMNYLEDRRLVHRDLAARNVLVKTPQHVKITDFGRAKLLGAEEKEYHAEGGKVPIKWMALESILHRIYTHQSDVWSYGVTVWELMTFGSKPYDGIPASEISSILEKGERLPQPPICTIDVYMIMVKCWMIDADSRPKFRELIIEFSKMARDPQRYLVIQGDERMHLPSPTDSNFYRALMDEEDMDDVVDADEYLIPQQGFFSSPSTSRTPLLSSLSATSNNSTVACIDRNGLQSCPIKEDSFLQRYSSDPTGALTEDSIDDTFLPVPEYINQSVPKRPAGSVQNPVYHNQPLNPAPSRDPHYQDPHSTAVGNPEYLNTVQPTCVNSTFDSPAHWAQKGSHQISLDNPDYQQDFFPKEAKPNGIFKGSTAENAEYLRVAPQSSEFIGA

RET(M918T) = target: T4, RET(M918T) (Homo sapiens, UniProt P07949, M918T); assay: KINOMEscan; format: binding; details: read-out: % Ctrl
T4 construct: purchased DiscoveRx KINOMEscan
T4 sequence (P07949 29-1114 M918T): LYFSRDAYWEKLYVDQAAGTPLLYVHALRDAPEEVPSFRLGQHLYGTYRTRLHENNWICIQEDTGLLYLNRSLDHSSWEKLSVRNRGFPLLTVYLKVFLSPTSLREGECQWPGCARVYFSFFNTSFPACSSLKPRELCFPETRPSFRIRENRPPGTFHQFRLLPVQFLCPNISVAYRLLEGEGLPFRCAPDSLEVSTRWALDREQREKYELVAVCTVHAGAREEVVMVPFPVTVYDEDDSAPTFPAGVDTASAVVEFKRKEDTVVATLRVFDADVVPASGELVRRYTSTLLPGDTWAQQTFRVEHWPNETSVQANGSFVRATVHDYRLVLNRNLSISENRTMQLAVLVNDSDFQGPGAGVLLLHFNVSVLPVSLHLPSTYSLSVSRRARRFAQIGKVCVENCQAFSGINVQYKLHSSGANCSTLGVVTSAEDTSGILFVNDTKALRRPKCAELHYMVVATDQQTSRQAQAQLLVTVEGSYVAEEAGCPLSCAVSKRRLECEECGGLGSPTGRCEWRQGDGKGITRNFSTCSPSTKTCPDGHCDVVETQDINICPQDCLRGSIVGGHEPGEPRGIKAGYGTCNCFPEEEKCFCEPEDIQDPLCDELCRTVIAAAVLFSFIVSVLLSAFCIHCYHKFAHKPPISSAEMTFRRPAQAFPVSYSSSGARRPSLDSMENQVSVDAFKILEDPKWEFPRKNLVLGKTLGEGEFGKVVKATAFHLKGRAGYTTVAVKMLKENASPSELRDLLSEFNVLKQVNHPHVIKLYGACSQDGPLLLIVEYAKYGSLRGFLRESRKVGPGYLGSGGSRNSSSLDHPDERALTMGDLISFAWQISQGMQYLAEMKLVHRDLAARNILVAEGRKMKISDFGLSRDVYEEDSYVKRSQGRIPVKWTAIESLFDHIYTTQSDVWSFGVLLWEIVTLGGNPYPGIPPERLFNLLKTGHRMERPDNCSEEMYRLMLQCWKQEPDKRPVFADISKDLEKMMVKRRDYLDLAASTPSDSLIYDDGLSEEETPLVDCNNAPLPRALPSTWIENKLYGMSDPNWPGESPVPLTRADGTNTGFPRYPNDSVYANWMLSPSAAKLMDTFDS

In the case of Cc1ccc(C2=Nc3cccnc3S(=O)(=O)c3ccccc32)cc1 [TBPT, 6-(p-tolyl)benzo[f] pyrido[2,3-b][1,4] thiazepine 11,11-dioxide], the “Resistance Folds” value (H460TaxR [1]; EC50 in H460TaxR cells divided by EC50 in H460 cells) is reported as 1.3, the EC50 (H460TaxR [1]; 72 h, H460TaxR cells) is reported as under 500 nM and the EC50 (H460TaxR [1]; H460TaxR(+Rev), Reversan (P-gp inhibitor)) is reported as 610 ± 260 nM. For the same molecule, the EC50 (H460 [2]) was 450 ± 190 nM, the EC50 (H460 [2]; Homo sapiens, NCI-H460, 72 h) was under 500 nM and the half-life [3] was 5.18 ± 0.69 h. The half-life (plasma stability) was over 50 h, the “P-gp ATPase activity” value (P-gp) was “did not induce P-gp ATPase activity” and the “microtubule organization in live cells” value (H460TaxR [4]) was “disordered microtubule fragments”. The “microtubule organization in live cells” value (H460 [5]) was “disordered microtubule fragments”, the remaining binding at 5 µM ([6]; 5 μM) was 68% and the remaining binding at 10 µM ([6]; 10 μM) was 92%. The “% Ctrl” value (EGFR(L747-T751del,Sins); 5 μM) was 88%, the “% Ctrl” value (EGFR(L747-T751del,Sins); 10 μM) was 98% and the remaining binding at 5 µM (EGFR(L858R); 5 μM) was 85%. For the same molecule, the remaining binding at 10 µM (EGFR(L858R); 10 μM) was 100%, the remaining binding at 5 µM (RET(M918T); 5 μM) was 99% and the remaining binding at 10 µM (RET(M918T); 10 μM) was 99%.
